For two molecules, IC50 and GI50 results are on record in patent publication US20260365670A1, “EGFR INHIBITORS AND USES THEREOF” (DIZAL (JIANGSU) PHARMACEUTICAL CO., LTD., priority 2022, published 2026).

As usually defined, the IC50 is the concentration that inhibits the measured activity by half.

The target of one experiment is T1, EGFR wild type (Homo sapiens, UniProt P00533).
T1 construct: purchased Carna Bio
The experiment can be described thus: Inhibition of EGFR wild type biochemical enzymatic activity (HTRF). To be noted: 1 mM ATP. In outline:
(§1)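 Following 1 h at room temperature with titrated compound, 1 mM ATP and 1 μM biotin-TK peptide (Mg2+/Mn2+, CHAPS, DTT, 0.5% DMSO buffer), EDTA-containing detection reagent terminated each enzyme reaction. Time-resolved fluorescence (ex 320, em 665/615 nm) ratio tracked activity. IC50 values came from four-parameter fits.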
In general terms: Time-resolved FRET reads energy transfer from a long-lived donor to a nearby acceptor.

In the next experiment the target is T2, EGFR L858R (Homo sapiens, UniProt P00533, L858R).
T2 construct: purchased Carna Bio
The experiment can be described thus: Inhibition of EGFR L858R biochemical enzymatic activity (HTRF). To be noted: 1 mM ATP. In short, it runs like this: as §1

The next experiment concerns the target T3, EGFR L858R/T790M (Homo sapiens, UniProt P00533, L858R/T790M).
T3 construct: purchased Carna Bio
The experiment in a line: Inhibition of EGFR L858R/T790M biochemical enzymatic activity (HTRF). The conditions noted are these: 1 mM ATP. In short, it runs like this: as §1

In the next experiment the target is T4, EGFR Exon19Del (Homo sapiens, UniProt P00533, DEL746-750).
T4 construct: purchased Carna Bio
The experiment can be described thus: Inhibition of EGFR Exon19Del biochemical enzymatic activity (HTRF). The conditions noted are these: EGFR Exon19Del, 1 mM ATP, 1 h at room temperature, read-out: IC50 @Del19. In short, it runs like this: as §1

The target of the next experiment is T5, EGFR Exon19Del/T790M (Homo sapiens, UniProt P00533, DEL746-750/T790M).
T5 construct: purchased Carna Bio
The experiment can be described thus: Inhibition of EGFR Exon19Del/T790M biochemical enzymatic activity (HTRF). The conditions noted are these: 1 mM ATP. In short, it runs like this: as §1

For a further experiment, the target named is T6, EGFR[T790M/C797S/L858R] (Homo sapiens, UniProt P00533, C797S/L858R/T790M).
T6 construct: purchased Carna Bio
The experiment in a line: Inhibition of EGFR[T790M/C797S/L858R] biochemical enzymatic activity (HTRF). To be noted: 1 mM ATP. In short, it runs like this:
as §1

The target in experiment [1] is T7, EGFR[T790M/C797S/d746-750] (Homo sapiens, UniProt P00533, C797S/DEL746-750/T790M).
T7 construct: purchased Carna Bio
The experiment can be described thus: Inhibition of EGFR[T790M/C797S/d746-750] biochemical enzymatic activity (HTRF). In short, it runs like this:
as §1

In a further experiment the target is T8, EGFR (d746-750 C797S) (Homo sapiens, UniProt P00533, C797S/DEL746-750).
T8 construct: purchased signalchem
The experiment in a line: Inhibition of EGFR (d746-750 C797S) biochemical enzymatic activity (HTRF). The conditions noted are these: 1 mM ATP. In outline: as §1

Another experiment deals with T9, EGFR (C797S L858R) (Homo sapiens, UniProt P00533, C797S/L858R).
T9 construct: purchased signalchem
The experiment in a line: Inhibition of EGFR (C797S L858R) biochemical enzymatic activity (HTRF). To be noted: 1 mM ATP. In short, it runs like this: as §1

Experiment [2] concerns Ba/F3 cells expressing EGFR mutations. The experiment in a line: Cell proliferation assay, Ba/F3 cells expressing EGFR mutations (CellTiter-Glo, 72 hours). It is filed as cell-based. In outline:
(§2)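 GI50 is the concentration giving 50% proliferation inhibition. Growth for this was normalised to a baseline viability reading taken when compound was added, and to DMSO wells. PC-9 (500 cells/well) and mutant-EGFR Ba/F3 (5000 cells/well) are treated after overnight seeding in RPMI1640-based medium.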

Another experiment deals with PC-9. The experiment in a line: Cell proliferation assay, PC-9 cells (CellTiter-Glo, 72 hours). The class given is cell-based. To be noted: PC9 cells, read-out: GI50 PC9. In outline: as §2
A further experiment concerns A-431. The experiment can be described thus: Cell proliferation assay, A-431 cells (GI50, Table 6). It is filed as cell-based. The procedure:
[Worded in the source for another cell line; this cell line is reported under the same test.] Ba/F3 cells expressing EGFR mutations were seeded in 384-well plates at 5000 cells/well in RPMI1640 medium containing […]. PC-9 at 500 cells/well was seeded into 384-well plates in RPMI1640 medium with 10% FBS. After overnight incubation, the assay plates were dosed with compounds at a series of concentrations. Alongside dosing the assay plates, the day 0 plate was processed using CellTiter-Glo® Luminescent Cell Viability Assay (Promega) to measure the number of viable cells (G0). The assay plates were further incubated for 72 hours and the number of viable cells (G3) was measured. The percentage of proliferation was calculated as: […]=100×(G3 value of sample well−G0 value)/(G3 value of DMSO control−G0 value). The concentration of compound producing 50% proliferation inhibition (GI50) was further calculated in best-fit curves using XLFit software. N/A=not available.

Each structure is given as a SMILES string. Where two headings read alike, the source gives them in different places. Where only a bound is given, the exact number is not on record here.

T2 sequence (P00533 25-1210 L858R): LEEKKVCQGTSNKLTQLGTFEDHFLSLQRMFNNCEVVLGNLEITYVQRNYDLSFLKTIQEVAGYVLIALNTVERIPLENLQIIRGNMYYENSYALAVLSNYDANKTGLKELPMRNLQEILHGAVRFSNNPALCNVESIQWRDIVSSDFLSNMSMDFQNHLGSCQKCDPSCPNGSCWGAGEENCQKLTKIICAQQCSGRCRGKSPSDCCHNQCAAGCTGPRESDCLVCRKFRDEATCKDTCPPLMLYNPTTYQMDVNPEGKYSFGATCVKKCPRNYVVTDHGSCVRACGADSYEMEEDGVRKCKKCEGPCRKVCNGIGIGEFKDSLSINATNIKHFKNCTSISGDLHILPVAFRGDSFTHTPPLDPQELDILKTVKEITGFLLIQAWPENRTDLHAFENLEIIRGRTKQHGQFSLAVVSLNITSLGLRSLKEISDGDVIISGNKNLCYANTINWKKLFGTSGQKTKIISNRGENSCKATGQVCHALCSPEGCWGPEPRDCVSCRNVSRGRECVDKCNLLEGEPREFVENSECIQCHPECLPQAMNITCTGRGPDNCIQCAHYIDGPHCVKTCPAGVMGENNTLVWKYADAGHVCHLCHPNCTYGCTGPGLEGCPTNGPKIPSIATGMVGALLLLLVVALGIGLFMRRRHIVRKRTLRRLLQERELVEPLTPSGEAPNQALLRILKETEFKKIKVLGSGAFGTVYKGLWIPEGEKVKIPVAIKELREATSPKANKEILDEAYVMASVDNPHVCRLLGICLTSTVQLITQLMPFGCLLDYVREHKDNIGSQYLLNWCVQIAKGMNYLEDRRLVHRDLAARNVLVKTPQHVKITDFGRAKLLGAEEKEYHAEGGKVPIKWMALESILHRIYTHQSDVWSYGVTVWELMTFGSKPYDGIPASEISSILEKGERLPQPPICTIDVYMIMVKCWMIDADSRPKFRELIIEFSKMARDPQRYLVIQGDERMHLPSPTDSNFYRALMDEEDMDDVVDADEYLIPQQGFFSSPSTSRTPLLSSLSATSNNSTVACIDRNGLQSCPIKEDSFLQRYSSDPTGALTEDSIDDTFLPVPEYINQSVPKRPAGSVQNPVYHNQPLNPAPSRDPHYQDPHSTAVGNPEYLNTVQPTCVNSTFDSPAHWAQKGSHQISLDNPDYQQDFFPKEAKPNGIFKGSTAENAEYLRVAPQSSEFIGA
T7 sequence (P00533 with tags, fused parts or gaps DEL746-750/T790M/C797S limits assumed): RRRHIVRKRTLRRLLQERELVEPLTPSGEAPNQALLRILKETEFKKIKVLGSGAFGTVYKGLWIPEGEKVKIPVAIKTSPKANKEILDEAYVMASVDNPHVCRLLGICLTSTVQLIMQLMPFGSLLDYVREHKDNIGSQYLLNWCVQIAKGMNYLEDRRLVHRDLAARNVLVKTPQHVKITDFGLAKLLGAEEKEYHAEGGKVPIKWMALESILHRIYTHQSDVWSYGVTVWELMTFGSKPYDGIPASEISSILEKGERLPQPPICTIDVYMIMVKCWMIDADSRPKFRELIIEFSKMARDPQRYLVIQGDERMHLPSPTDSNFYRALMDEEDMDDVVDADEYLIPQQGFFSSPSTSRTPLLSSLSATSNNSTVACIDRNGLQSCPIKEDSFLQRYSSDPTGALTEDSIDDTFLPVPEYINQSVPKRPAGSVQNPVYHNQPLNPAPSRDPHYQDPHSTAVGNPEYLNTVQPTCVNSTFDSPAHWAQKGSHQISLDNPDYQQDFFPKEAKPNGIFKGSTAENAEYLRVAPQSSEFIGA
T3 sequence (P00533 25-1210 T790M/L858R): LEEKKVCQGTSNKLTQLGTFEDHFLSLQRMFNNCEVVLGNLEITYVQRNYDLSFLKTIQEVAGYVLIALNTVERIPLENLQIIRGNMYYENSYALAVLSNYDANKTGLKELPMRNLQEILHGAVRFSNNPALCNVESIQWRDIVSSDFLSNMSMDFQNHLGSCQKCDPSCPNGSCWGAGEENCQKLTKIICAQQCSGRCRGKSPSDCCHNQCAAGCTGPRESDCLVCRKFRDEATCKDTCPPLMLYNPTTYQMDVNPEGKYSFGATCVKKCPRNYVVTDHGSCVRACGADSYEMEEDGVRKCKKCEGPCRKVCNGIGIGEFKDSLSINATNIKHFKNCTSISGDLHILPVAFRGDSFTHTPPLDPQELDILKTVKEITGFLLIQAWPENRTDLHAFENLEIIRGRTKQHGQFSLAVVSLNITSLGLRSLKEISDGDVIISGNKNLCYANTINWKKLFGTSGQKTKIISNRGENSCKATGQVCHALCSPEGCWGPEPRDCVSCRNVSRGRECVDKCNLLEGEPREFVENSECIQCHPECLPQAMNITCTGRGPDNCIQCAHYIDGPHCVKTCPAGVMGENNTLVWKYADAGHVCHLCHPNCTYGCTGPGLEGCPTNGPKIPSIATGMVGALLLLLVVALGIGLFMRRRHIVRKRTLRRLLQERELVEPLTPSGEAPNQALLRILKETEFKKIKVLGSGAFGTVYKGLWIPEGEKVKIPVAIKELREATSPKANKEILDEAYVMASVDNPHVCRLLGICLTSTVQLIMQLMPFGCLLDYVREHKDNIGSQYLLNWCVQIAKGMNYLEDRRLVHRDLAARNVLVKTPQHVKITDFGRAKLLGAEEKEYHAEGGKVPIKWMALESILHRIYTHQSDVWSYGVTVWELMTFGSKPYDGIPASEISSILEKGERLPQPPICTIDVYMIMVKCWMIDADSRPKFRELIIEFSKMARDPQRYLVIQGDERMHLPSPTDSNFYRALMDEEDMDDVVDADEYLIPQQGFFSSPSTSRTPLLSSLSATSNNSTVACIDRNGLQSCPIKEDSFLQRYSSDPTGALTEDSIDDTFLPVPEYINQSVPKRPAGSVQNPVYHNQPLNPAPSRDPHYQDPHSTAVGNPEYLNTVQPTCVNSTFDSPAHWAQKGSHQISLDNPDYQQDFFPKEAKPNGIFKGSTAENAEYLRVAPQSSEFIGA
T8 sequence (P00533 with tags, fused parts or gaps DEL746-750/C797S limits assumed): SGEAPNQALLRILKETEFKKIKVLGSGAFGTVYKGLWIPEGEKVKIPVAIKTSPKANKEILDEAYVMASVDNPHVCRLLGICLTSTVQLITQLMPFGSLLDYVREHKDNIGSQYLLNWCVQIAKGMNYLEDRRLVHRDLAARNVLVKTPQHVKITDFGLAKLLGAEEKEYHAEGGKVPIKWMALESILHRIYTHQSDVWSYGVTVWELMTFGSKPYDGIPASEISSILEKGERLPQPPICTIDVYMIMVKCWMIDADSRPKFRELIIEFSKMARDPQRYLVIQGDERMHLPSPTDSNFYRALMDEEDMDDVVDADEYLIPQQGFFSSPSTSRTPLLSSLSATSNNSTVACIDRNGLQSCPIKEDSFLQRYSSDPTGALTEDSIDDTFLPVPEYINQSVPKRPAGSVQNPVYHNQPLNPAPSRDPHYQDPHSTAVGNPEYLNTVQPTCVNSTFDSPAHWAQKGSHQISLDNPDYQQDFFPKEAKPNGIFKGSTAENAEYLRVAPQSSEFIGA
T1 sequence (P00533 25-1210): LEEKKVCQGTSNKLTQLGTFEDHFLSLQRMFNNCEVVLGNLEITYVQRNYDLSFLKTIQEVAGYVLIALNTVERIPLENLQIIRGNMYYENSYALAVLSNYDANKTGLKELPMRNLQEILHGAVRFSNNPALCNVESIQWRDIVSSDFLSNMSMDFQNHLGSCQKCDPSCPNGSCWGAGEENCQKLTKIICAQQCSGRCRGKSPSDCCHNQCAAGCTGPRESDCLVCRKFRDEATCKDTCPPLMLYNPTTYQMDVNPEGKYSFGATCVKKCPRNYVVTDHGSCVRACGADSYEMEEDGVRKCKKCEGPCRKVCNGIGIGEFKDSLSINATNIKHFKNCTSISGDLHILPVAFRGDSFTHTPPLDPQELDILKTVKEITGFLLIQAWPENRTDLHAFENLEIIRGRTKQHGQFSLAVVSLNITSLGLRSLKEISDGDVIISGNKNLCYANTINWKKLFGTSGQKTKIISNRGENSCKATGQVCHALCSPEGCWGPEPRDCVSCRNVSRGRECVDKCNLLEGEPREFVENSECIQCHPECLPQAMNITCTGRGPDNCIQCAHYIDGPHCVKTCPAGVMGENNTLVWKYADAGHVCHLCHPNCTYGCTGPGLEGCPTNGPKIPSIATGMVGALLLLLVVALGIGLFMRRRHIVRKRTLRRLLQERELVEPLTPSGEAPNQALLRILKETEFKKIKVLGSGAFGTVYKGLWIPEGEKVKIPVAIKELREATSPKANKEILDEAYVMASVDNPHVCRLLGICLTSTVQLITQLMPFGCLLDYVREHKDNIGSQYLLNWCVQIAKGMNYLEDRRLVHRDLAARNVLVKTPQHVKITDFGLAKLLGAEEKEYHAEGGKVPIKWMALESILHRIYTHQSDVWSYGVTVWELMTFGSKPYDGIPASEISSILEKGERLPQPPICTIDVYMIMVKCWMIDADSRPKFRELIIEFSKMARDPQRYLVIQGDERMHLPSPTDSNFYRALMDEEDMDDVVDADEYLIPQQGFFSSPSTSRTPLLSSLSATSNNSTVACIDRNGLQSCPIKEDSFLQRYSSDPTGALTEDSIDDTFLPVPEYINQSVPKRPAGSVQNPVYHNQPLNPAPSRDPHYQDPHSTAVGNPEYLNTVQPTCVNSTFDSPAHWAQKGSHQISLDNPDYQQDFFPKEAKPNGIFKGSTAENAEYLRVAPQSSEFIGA

As for `Cc1cc2cc(n1)-c1cnn(C)c1OCCN1CC3CCC(C3)(C1)n1c(nc3ccc(N4CCOCC4)cc31)NC2=O` (single isomer, unassigned) [Example B10A, 15,21-Dimethyl-5-(morpholin-4-yl)-23-oxa-2,9,11,16,20,21,26-heptaazaheptacyclo[24.4.1.1^{1,28}.1^{13,17}.0^{2,10}.0^{3,8}.0^{18,22}]tritriaconta-3,5,7,9,13,15,17(33),18(22),19-nonaen-12-one], the IC50 was 3370 nM at EGFR wild type (EGFR wild type, 1 h at room temperature, read-out: IC50 @WT); 212 nM at EGFR L858R (1 h at room temperature, read-out: IC50 @L858R); 2.6 nM at EGFR L858R/T790M (EGFR L858R/T790M, 1 h at room temperature, read-out: IC50 @L858R-T790M); 4.6 nM on EGFR Exon19Del; 2.8 nM on EGFR Exon19Del/T790M (EGFR Exon19Del/T790M, 1 h at room temperature, read-out: IC50 @Del19-T790M); 2.6 nM on EGFR[T790M/C797S/L858R] (EGFR[T790M/C797S/L858R], 1 h at room temperature, read-out: IC50 @T790M- C797S - L858R). The half-maximal inhibitory concentration (IC50) in [1] (EGFR[T790M/C797S/d746-750], 1 mM ATP, 1 h at room temperature, read-out: IC50 @T790M - C797S - Del19) is 2.2 nM; on EGFR (d746-750 C797S) (EGFR (d746-750 C797S), 1 h at room temperature, read-out: IC50 @Del19-C797S), 2.3 nM; at EGFR (C797S L858R) (EGFR (C797S L858R), 1 h at room temperature, read-out: IC50 @L858-C797S), 59 nM. Also, the GI50 turned out to be 0.79 nM in [2] (BaF3 cells, EGFR DEL19 - C797S, read-out: GI50 DEL19 - C797S/BaF3); 0.84 nM in experiment [2] (BaF3 cells, EGFR DEL19 - T790-C797S, read-out: GI50 DEL19 - T790-C797S/BaF3); 18 nM in experiment [2] (BaF3 cells, EGFR L858R - C797S, read-out: GI50 L858R - C797S/BaF3); 0.91 nM in experiment [2] (BaF3 cells, EGFR L858R - T790-C797S, read-out: GI50 L858R - T790-C797S/BaF3); 2.1 nM in experiment [2] (BaF3 cells, EGFR L858R - T790M, read-out: GI50 L858R - T790M/BaF3); 24 nM in experiment [2] (BaF3 cells, EGFR L858R, read-out: GI50 L858R/BaF3). The GI50 amounted to 0.89 nM in [2] (EGFR DEL19 - T790M, read-out: GI50 DEL19 - T790M); 41 nM with PC-9; 1730 nM with A-431 (A-431 cells).
In the case of `CN1CCN(c2cc3c(cc2F)nc2n3C34CCC(CC3)CN(CCOc3c(cnn3C)-c3cc(cn(C)c3=O)C(=O)N2)C4)CC1` [Example A115, 6-fluoro-15,21-dimethyl-5-(4-methylpiperazin-1-yl)-23-oxa-2,9,11,15,20,21,26-heptaazaheptacyclo[26.2.2.1^{1,26}.1^{13,17}.0^{2,10}.0^{3,8}.0^{18,22}]tetratriaconta-3,5,7,9,13,17(34),18(22),19-octaene-12,16-dione], the IC50 was above 5000 nM on EGFR wild type (EGFR WT, 1 h, room temperature, read-out: IC50 (nM) @WT); 233 nM at EGFR L858R (1 h, room temperature, read-out: IC50 (nM) @L858R); 325 nM at EGFR L858R/T790M (EGFR L858R-T790M, 1 h, room temperature, read-out: IC50 (nM) @L858R-T790M); 12 nM at EGFR Exon19Del/T790M (EGFR Del19-T790M, 1 h, room temperature, read-out: IC50 (nM) @Del19-T790M); 50 nM at EGFR[T790M/C797S/L858R] (EGFR T790M-C797S-L858R, 1 h, room temperature, read-out: IC50 (nM) @T790M- C797S - L858R); 6.6 nM in experiment [1] (EGFR T790M-C797S-Del19, 1 mM ATP, 1 h, room temperature, read-out: IC50 (nM) @T790M - C797S - Del19). Further, the IC50 at EGFR (d746-750 C797S) (EGFR Del19-C797S, 1 h, room temperature, read-out: IC50 (nM) @Del19-C797S) amounted to 9.2 nM; at EGFR (C797S L858R) (EGFR L858-C797S, 1 h, room temperature, read-out: IC50 (nM) @L858-C797S), 112 nM. Besides, the GI50 is 7.6 nM in experiment [2] (Mus musculus, BaF3, 72 h, BaF3 cells, EGFR DEL19 - C797S, read-out: GI50 DEL19 - C797S/BaF3); 52 nM in experiment [2] (Mus musculus, BaF3, 72 h, BaF3 cells, EGFR DEL19 - T790-C797S, read-out: GI50 DEL19 - T790-C797S/BaF3); 61 nM in experiment [2] (Mus musculus, BaF3, 72 h, BaF3 cells, EGFR L858R - C797S, read-out: GI50 L858R - C797S/BaF3); 68 nM in [2] (Mus musculus, BaF3, 72 h, BaF3 cells, EGFR L858R - T790-C797S, read-out: GI50 L858R - T790-C797S/BaF3); 133 nM in experiment [2] (Mus musculus, BaF3, 72 h, BaF3 cells, EGFR L858R - T790M, read-out: GI50 L858R - T790M/BaF3); 20 nM in [2] (Mus musculus, BaF3, 72 h, BaF3 cells, EGFR L858R, read-out: GI50 L858R/BaF3). Moreover, the GI50 is 18 nM in experiment [2] (Mus musculus, BaF3, 72 h, EGFR DEL19 - T790M, read-out: GI50 DEL19 - T790M); 94 nM in the experiment on PC-9 (Homo sapiens, PC-9, 72 h); 3040 nM in the experiment on A-431 (Homo sapiens, A-431, A-431 cells).
